Where “and” joins values, the source holds several entries; their conditions need not be identical. Identical values can stand only once.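 Assay format: 96-well plates, 48-hour exposure. GI50 marks 50% less growth. At the TGI there is no net growth.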
Experiments:
Test in all cases: NCI-60 cell line screen, 48 h
EKVX NSCLC = tested on: EKVX NSCLC
HOP-62 NSCLC = tested on: HOP-62 NSCLC
MALME-3M melanoma = tested on: MALME-3M melanoma
OVCAR-3 ovarian = tested on: OVCAR-3 ovarian
OVCAR-5 ovarian = tested on: OVCAR-5 ovarian
RPMI-8226 leukemia = tested on: RPMI-8226 leukemia
SF-539 CNS = tested on: SF-539 CNS
SK-MEL-28 melanoma = tested on: SK-MEL-28 melanoma
SN12C renal = tested on: SN12C renal
T-47D breast = tested on: T-47D breast

SMILES | GI50 (EKVX NSCLC) | TGI (EKVX NSCLC) | GI50 (HOP-62 NSCLC) | TGI (HOP-62 NSCLC) | GI50 (MALME-3M melanoma) | TGI (MALME-3M melanoma) | GI50 (OVCAR-3 ovarian) | TGI (OVCAR-3 ovarian) | GI50 (OVCAR-5 ovarian) | TGI (OVCAR-5 ovarian) | GI50 (RPMI-8226 leukemia) | TGI (RPMI-8226 leukemia) | GI50 (SF-539 CNS) | TGI (SF-539 CNS) | GI50 (SK-MEL-28 melanoma) | TGI (SK-MEL-28 melanoma) | GI50 (SN12C renal) | TGI (SN12C renal) | GI50 (T-47D breast) | TGI (T-47D breast)
NS(=O)(=O)c1ccc(N=Nc2c(O)[nH]c3ccc(-c4cnco4)cc23)cc1 | > 25 µM | > 25 µM | > 25 µM | > 25 µM | > 25 µM | > 25 µM | > 25 µM | > 25 µM | > 25 µM | > 25 µM | > 25 µM | > 25 µM | > 25 µM | > 25 µM | > 25 µM | > 25 µM | > 25 µM | > 25 µM | > 25 µM | > 25 µM
O=C(NC1=CC(=O)c2ccccc2C1=O)c1ccccc1 | 0.729 µM | 7.63 µM | 2.76 µM | 16 µM | 1.7 µM | 3.27 µM | 0.685 µM | 2.01 µM | 1.18 µM | 15.5 µM | 0.355 µM | > 100 µM | 0.284 µM | 0.913 µM | 0.841 µM | 15.3 µM | 1.49 µM | 6.01 µM | 0.777 µM | 2.68 µM
O=C(O)C1OC(n2cc(F)c(=O)[nH]c2=O)CC1O (configuration not stated) | – | > 100 µM | – | > 89.2 µM | – | > 100 µM | – | > 100 µM | – | > 100 µM | – | > 100 µM | – | 26.2 µM | – | > 63.1 µM | – | > 100 µM | – | > 100 µM
CN1CCN(CCCOc2ccc3nc(Nc4ccc(Cl)c(C(F)(F)F)c4)ccc3c2)CC1 | 15 µM | 29.1 µM | 14.9 µM | 29.6 µM | 11.3 µM | 28.4 µM | 12.5 µM | 25.8 µM | 17 µM | 35.4 µM | 14.3 µM | 34.2 µM | 13.8 µM | 33.3 µM | 13.8 µM | 29.2 µM | 13.8 µM | 30.2 µM | 17.6 µM | 37.3 µM
COc1cccc2c1C(=O)c1c(O)c3c(c(O)c1C2=O)C[C@@](O)(C(C)=O)C[C@@H]3OC1OC(C)C(O)C(N)C1Br (some centres not stated) | 0.195 µM | 5.04 µM and 1.98 µM | – | 0.0785 µM and 0.236 µM | 0.0215 µM | 0.297 µM and 0.225 µM | 0.178 µM | 0.364 µM and 0.584 µM | 0.0554 µM | 0.663 µM and 0.704 µM | 0.0124 µM | 0.702 µM and 0.263 µM | 0.0419 µM | 0.701 µM and 0.388 µM | 0.22 µM | 1.28 µM and 1.32 µM | 0.018 µM | 0.307 µM and 1.12 µM | – | 0.74 µM
COc1ccc(Nc2c3ccccc3nc3occc23)cc1 | 18.1 µM | > 52.7 µM | 5.42 µM | 30.1 µM | 2.31 µM | 34.3 µM | 0.366 µM | 4.2 µM | 13.7 µM | > 63.4 µM | 1.12 µM | 12.4 µM | 2.84 µM | 20.8 µM | 3.06 µM | 22.8 µM | 2.45 µM | 23.4 µM | – | > 38.2 µM
COc1cc2ncnc(Nc3ccc(C)c(O)c3)c2cc1OC | 6.3 µM | > 25 µM | > 25 µM | > 25 µM | > 25 µM | > 25 µM | 8.94 µM | > 25 µM | 16.2 µM | > 25 µM | > 25 µM | > 25 µM | 5.98 µM | > 23 µM | > 25 µM | > 25 µM | 6.46 µM | > 25 µM | 7.79 µM | > 25 µM
Cc1cc(S(=O)(=O)Nc2nnc(-c3ccccc3)c(-c3ccccc3)n2)c(SCC(N)=O)cc1Cl | > 100 µM | > 100 µM | 52.5 µM | > 100 µM | 30.2 µM | > 100 µM | 19.6 µM | 42.8 µM | > 100 µM | > 100 µM | 30.9 µM | 86.6 µM | 0.671 µM | 30.1 µM | 72.8 µM | > 100 µM | 62.3 µM | > 100 µM | 34.5 µM | > 100 µM
